US8895733B2 (Novartis AG, priority 2010, dated 2014)
Where a name gives a salt, the structure may show the parent alone.

Target: T1, Nav 1.7 (Homo sapiens, UniProt Q15858)
T1 construct: expressed in transfected cells
Experiment: Whole-cell voltage clamp electrophysiology, automated patch clamp (marker c in Table of Examples)
Type: cell-based
Conditions: marker c = Automated patch clamp data; read-out: Nav 1.7 activity
Outline: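 Human NaV1.7 currents were recorded by whole-cell automated patch clamp, on IonWorks Quattro or another automated platform, typically in perforated-patch configuration. The stimulus protocol was designed to probe block mainly of the inactivated state, with a typical sweep stepping from about −65 mV holding to −10 mV, then −100 mV.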

T1 sequence (Q15858 whole entry): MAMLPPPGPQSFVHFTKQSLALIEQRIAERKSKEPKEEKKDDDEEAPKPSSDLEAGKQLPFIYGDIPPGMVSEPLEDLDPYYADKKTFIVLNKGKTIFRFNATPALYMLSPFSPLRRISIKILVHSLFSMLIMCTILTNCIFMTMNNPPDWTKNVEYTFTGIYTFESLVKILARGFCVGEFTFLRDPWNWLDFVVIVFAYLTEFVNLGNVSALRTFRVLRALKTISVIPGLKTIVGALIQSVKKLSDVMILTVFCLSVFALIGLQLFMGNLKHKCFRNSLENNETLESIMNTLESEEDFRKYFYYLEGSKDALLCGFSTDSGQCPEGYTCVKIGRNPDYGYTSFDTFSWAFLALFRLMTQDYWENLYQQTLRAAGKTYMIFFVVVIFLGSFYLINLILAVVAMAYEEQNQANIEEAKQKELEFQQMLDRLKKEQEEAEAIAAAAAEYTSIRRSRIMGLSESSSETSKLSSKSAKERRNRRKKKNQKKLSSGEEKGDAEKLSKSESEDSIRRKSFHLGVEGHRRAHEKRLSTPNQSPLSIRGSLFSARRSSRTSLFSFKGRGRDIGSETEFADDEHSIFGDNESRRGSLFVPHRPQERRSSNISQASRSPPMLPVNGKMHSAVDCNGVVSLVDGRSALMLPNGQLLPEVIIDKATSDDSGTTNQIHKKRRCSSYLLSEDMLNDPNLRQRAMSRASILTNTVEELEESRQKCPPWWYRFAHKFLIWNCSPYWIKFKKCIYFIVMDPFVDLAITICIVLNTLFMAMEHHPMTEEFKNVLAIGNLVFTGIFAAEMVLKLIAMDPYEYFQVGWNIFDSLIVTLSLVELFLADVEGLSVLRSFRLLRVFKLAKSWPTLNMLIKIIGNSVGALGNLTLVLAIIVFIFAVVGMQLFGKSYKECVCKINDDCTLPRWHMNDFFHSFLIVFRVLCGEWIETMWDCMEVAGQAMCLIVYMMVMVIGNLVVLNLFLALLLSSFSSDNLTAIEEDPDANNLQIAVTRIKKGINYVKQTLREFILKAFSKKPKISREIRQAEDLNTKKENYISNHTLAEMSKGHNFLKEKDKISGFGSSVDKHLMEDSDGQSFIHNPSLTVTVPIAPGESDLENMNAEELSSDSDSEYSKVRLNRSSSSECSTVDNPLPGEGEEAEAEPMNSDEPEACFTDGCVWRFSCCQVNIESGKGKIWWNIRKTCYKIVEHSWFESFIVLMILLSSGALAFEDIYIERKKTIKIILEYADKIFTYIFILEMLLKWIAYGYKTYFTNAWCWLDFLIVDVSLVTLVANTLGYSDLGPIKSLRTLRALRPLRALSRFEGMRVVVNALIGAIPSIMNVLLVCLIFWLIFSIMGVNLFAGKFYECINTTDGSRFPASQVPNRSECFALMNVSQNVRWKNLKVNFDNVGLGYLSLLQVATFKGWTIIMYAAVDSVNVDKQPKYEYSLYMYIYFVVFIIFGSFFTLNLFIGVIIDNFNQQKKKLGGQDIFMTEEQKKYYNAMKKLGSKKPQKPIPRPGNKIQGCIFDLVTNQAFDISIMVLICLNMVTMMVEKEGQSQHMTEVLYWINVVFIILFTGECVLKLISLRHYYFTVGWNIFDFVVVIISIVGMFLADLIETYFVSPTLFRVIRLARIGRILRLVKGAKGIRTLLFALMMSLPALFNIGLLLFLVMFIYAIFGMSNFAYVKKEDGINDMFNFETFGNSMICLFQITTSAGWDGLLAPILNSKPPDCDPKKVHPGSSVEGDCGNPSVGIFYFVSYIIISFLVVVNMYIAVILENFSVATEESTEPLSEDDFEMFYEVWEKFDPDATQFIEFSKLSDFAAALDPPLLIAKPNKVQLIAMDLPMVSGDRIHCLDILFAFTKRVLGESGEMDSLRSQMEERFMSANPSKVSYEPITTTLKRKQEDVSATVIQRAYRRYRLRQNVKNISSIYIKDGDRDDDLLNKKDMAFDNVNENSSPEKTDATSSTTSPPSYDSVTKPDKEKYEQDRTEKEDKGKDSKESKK

Row | SMILES | IC50 [nM]
1 | Nc1nc(Nc2ccc(F)c(Cl)c2)nc(-c2noc(-c3ccc(OCC(F)(F)F)nc3)n2)n1 [Example 413, 2-N-(3-Chloro-4-fluorophenyl)-6-{5-[6-(2,2,2-trifluoroethoxy)pyridin-3-yl]-1,2,4-oxadiazol-3-yl}-1,3,5-triazine-2,4-diamine] | 9020
2 | Nc1nc(Nc2ccc(F)c(F)c2)nc(-c2noc(-c3ccc(OCC(F)(F)F)nc3)n2)n1 [Example 416, 2-N-(3,4-difluorophenyl)-6-{5-[6-(2,2,2-trifluoroethoxy)pyridin-3-yl]-1,2,4-oxadiazol-3-yl}-1,3,5-triazine-2,4-diamine] | 1500
3 | CN(c1ccccc1)c1nc(N)nc(-c2noc(-c3ccc(Cl)nc3)n2)n1 [Example 418, 6-[5-(6-chloropyridin-3-yl)-1,2,4-oxadiazol-3-yl]-2-N-methyl-2-N-phenyl-1,3,5-triazine-2,4-diamine] | 1640
4 | CCOc1ncccc1-c1nc(-c2nc(N)nc(N(C)c3ccccc3)n2)no1 [Example 419, 6-[5-(2-ethoxypyridin-3-yl)-1,2,4-oxadiazol-3-yl]-2-N-methyl-2-N-phenyl-1,3,5-triazine-2,4-diamine] | 1450
5 | CN(c1ccccc1)c1nc(N)nc(-c2noc(-c3ccc(C(F)(F)F)cn3)n2)n1 [Example 420, 2-N-methyl-2-N-phenyl-6-{5-[5-(trifluoromethyl)pyridin-2-yl]-1,2,4-oxadiazol-3-yl}-1,3,5-triazine-2,4-diamine] | 2300
6 | CN(c1ccccc1)c1nc(N)nc(-c2noc(-c3ccc(S(C)(=O)=O)cc3)n2)n1 [Example 421, 6-[5-(4-methanesulfonylphenyl)-1,2,4-oxadiazol-3-yl]-2-N-methyl-2-N-phenyl-1,3,5-triazine-2,4-diamine] | 1430
7 | CN(c1ccccc1)c1nc(N)nc(-c2noc(C3CCC(N)CC3)n2)n1 (stereo not drawn) [Example 422, 6-[5-(4-Aminocyclohexyl)-1,2,4-oxadiazol-3-yl]-2-N-methyl-2-N-phenyl-1,3,5-triazine-2,4-diamine] | 9430
8 | CN(c1ccccc1)c1nc(N)nc(-c2noc(C3CCC(O)CC3)n2)n1 (stereo not drawn) [Example 424, 4-(3-{4-amino-6-[methyl(phenyl)amino]-1,3,5-triazin-2-yl}-1,2,4-oxadiazol-5-yl)cyclohexan-1-ol] | 2810
9 | CC(C)C(=O)NC1CCC(c2nc(-c3nc(N)nc(N(C)c4ccccc4)n3)no2)CC1 (stereo not drawn) [Example 425, N-[4-(3-{4-Amino-6-[methyl(phenyl)amino]-1,3,5-triazin-2-yl}-1,2,4-oxadiazol-5-yl)cyclohexyl]-2-methylpropanamide] | 2450
10 | CN(c1ccccc1)c1nc(N)nc(-c2noc(C3CCC(NC(=O)CC4CC4)CC3)n2)n1 (stereo not drawn) [Example 426, N-[4-(3-{4-amino-6-[methyl(phenyl)amino]-1,3,5-triazin-2-yl}-1,2,4-oxadiazol-5-yl)cyclohexyl]-2-cyclopropylacetamide] | 6680
11 | CN(c1ccccc1)c1nc(N)nc(-c2noc(C3CCC(NC(=O)CC(F)(F)F)CC3)n2)n1 (stereo not drawn) [Example 427, N-[4-(3-{4-amino-6-[methyl(phenyl)amino]-1,3,5-triazin-2-yl}-1,2,4-oxadiazol-5-yl)cyclohexyl]-3,3,3-trifluoropropanamide] | 4920
12 | CN(c1ccccc1)c1nc(N)nc(-c2noc(C3CCC(NC(=O)C(F)(F)F)CC3)n2)n1 (stereo not drawn) [Example 428, N-[4-(3-{4-amino-6-[methyl(phenyl)amino]-1,3,5-triazin-2-yl}-1,2,4-oxadiazol-5-yl)cyclohexyl]-2,2,2-trifluoroacetamide] | 5950
13 | CN(c1ccc(F)nc1)c1nc(N)nc(-c2noc(-c3ccc(OCC(F)(F)F)nc3)n2)n1 [Example 432, 2-N-(6-Fluoropyridin-3-yl)-2-N-methyl-6-{5-[6-(2,2,2-trifluoroethoxy)pyridin-3-yl]-1,2,4-oxadiazol-3-yl}-1,3,5-triazine-2,4-diamine] | 6290
14 | CN(c1ccccc1)c1nc(N)nc(-c2noc([C@@H]3CCCN3)n2)n1 [Example 438, 2-N-methyl-2-N-phenyl-6-{5-[(2S)-pyrrolidin-2-yl]-1,2,4-oxadiazol-3-yl}-1,3,5-triazine-2,4-diamine hydrochloride] | 2090
15 | CN(c1ccccc1)c1nc(N)nc(-c2noc([C@H]3CCCN3)n2)n1 [Example 439, 2-N-methyl-2-N-phenyl-6-{5-[(2R)-pyrrolidin-2-yl]-1,2,4-oxadiazol-3-yl}-1,3,5-triazine-2,4-diamine hydrochloride] | 4060
16 | CN(c1ccccc1)c1nc(N)nc(-c2noc([C@@H]3CCCN3C(=O)OC(C)(C)C)n2)n1 [Example 440, tert-butyl (2S)-2-(3-{4-amino-6-[methyl(phenyl)amino]-1,3,5-triazin-2-yl}-1,2,4-oxadiazol-5-yl)pyrrolidine-1-carboxylate] | 1300
17 | CN(c1ccccc1)c1nc(N)nc(-c2noc([C@@H]3CCCN3CCC(F)(F)F)n2)n1 [Example 441, 2-N-Methyl-2-N-phenyl-6-{5-[(2S)-1-(3,3,3-trifluoropropyl)pyrrolidin-2-yl]-1,2,4-oxadiazol-3-yl}-1,3,5-triazine-2,4-diamine] | 1450

Now those with a lower IC50, led by results:

Row | IC50 [nM] | SMILES
18 | 1150 | CN(c1ccc(F)cc1)c1nc(N)nc(-c2noc(-c3ccc(OCC(F)(F)F)nc3)n2)n1 [Example 410, 2-N-(4-fluorophenyl)-2-N-methyl-6-{5-[6-(2,2,2-trifluoroethoxy)pyridin-3-yl]-1,2,4-oxadiazol-3-yl}-1,3,5-triazine-2,4-diamine]
19 | 684 | CN(c1ccccc1)c1nc(N)nc(-c2noc(C3CCC(NC(=O)OC(C)(C)C)CC3)n2)n1 (stereo not drawn) [Example 423, tert-butyl N-[4-(3-{4-amino-6-[methyl(phenyl)amino]-1,3,5-triazin-2-yl}-1,2,4-oxadiazol-5-yl)cyclohexyl]carbamate]
20 | 567 | COc1cccc(-c2nc(-c3nc(N)nc(N(C)c4ccccc4)n3)no2)n1 [Example 415, 6-[5-(6-methoxypyridin-2-yl)-1,2,4-oxadiazol-3-yl]-2-N-methyl-2-N-phenyl-1,3,5-triazine-2,4-diamine]
21 | 410 | CN(c1ccc(F)c(Cl)c1)c1nc(N)nc(-c2noc(-c3ccc(OCC(F)(F)F)nc3)n2)n1 [Example 414, 2-N-(3-Chloro-4-fluorophenyl)-2-N-methyl-6-{5-[6-(2,2,2-trifluoroethoxy)pyridin-3-yl]-1,2,4-oxadiazol-3-yl}-1,3,5-triazine-2,4-diamine]
22 | 289 | CN(c1ccccc1)c1nc(N)nc(-c2noc(C3CCC(Oc4ccccc4)CC3)n2)n1 (stereo not drawn) [Example 429, 2-N-methyl-6-[5-(4-phenoxycyclohexyl)-1,2,4-oxadiazol-3-yl]-2-N-phenyl-1,3,5-triazine-2,4-diamine]
23 | 261 | CN(c1cccc(Cl)c1)c1nc(N)nc(-c2noc(-c3ccc(OCC(F)(F)F)nc3)n2)n1 [Example 409, 2-N-(3-chlorophenyl)-2-N-methyl-6-{5-[6-(2,2,2-trifluoroethoxy)pyridin-3-yl]-1,2,4-oxadiazol-3-yl}-1,3,5-triazine-2,4-diamine]
24 | 201 | CN(c1cccc(F)c1)c1nc(N)nc(-c2noc(-c3ccc(OCC(F)(F)F)nc3)n2)n1 [Example 407, 2-N-(3-fluorophenyl)-2-N-methyl-6-{5-[6-(2,2,2-trifluoroethoxy)pyridin-3-yl]-1,2,4-oxadiazol-3-yl}-1,3,5-triazine-2,4-diamine]
25 | 171 | COCCN(c1ccccc1)c1nc(N)nc(-c2noc(N3CC(Oc4ccccc4)C3)n2)n1 [Example 436, 2-N-(2-Methoxyethyl)-6-[5-(3-phenoxyazetidin-1-yl)-1,2,4-oxadiazol-3-yl]-2-N-phenyl-1,3,5-triazine-2,4-diamine]
26 | 167 | COCCN(c1ccccc1)c1nc(N)nc(-c2noc(-c3c(F)cccc3OC)n2)n1 [Example 437, 6-[5-(2-fluoro-6-methoxyphenyl)-1,2,4-oxadiazol-3-yl]-2-N-(2-methoxyethyl)-2-N-phenyl-1,3,5-triazine-2,4-diamine]
27 | 161 | CN(c1ccccc1)c1nc(N)nc(-c2noc(N3CC[C@H](Oc4ccccc4)C3)n2)n1 [Example 433, 2-N-methyl-6-{5-[(3S)-3-phenoxypyrrolidin-1-yl]-1,2,4-oxadiazol-3-yl}-2-N-phenyl-1,3,5-triazine-2,4-diamine]
28 | 146 | Nc1nc(Nc2ccccc2)nc(-c2noc(-c3ncccc3C(F)(F)F)n2)n1 [Example 430, 2-N-phenyl-6-{5-[3-(trifluoromethyl)pyridin-2-yl]-1,2,4-oxadiazol-3-yl}-1,3,5-triazine-2,4-diamine]
29 | 142 | Nc1nc(Nc2ccccc2)nc(-c2noc(-c3ncccc3Cl)n2)n1 [Example 431, 6-[5-(3-chloropyridin-2-yl)-1,2,4-oxadiazol-3-yl]-2-N-phenyl-1,3,5-triazine-2,4-diamine]
30 | 140 | CN(c1ccccc1)c1nc(N)nc(-c2noc(N3CC[C@@H](Oc4ccccc4)C3)n2)n1 [Example 434, 2-N-methyl-6-{5-[(3R)-3-phenoxypyrrolidin-1-yl]-1,2,4-oxadiazol-3-yl}-2-N-phenyl-1,3,5-triazine-2,4-diamine]
31 | 139 | CN(c1nc(N)nc(-c2noc(-c3ccc(OCC(F)(F)F)nc3)n2)n1)c1ccccc1F [Example 408, 2-N-(2-fluorophenyl)-2-N-methyl-6-{5-[6-(2,2,2-trifluoroethoxy)pyridin-3-yl]-1,2,4-oxadiazol-3-yl}-1,3,5-triazine-2,4-diamine]
32 | 82 | Cc1cccc(N(C)c2nc(N)nc(-c3noc(-c4ccc(OCC(F)(F)F)nc4)n3)n2)c1 [Example 412, 2-N-methyl-2-N-(3-methylphenyl)-6-{5-[6-(2,2,2-trifluoroethoxy)pyridin-3-yl]-1,2,4-oxadiazol-3-yl}-1,3,5-triazine-2,4-diamine]
33 | 28 | CN(c1nc(N)nc(-c2noc(-c3ccc(OCC(F)(F)F)nc3)n2)n1)c1ccc(F)cc1F [Example 417, 2-N-(2,4-difluorophenyl)-2-N-methyl-6-{5-[6-(2,2,2-trifluoroethoxy)pyridin-3-yl]-1,2,4-oxadiazol-3-yl}-1,3,5-triazine-2,4-diamine]
